Laboratory results: patent US20050171084A1, “Methods of treatment with lxr modulators” (priority 2002, published 2005)

Tests used:
[1] = test system: ABCG1; test: ABCG1 gene expression in the CNS after oral dosing; assay type: in vivo, C57 B1/6 mice; conditions: oral gavage, Example 1 10 mg kg twice daily, T0901317 50 mg/kg once daily
Method: (§1) Total RNA was isolated from tissue and cell culture samples using TRIzol reagent (GibcoBRL). Briefly, tissue samples were thawed directly in 1 ml Trizol/50 mg tissue and homogenized with a polytron. To facilitate recovery of nucleic acid, 100 μg glycogen (Ambion) was added. Cultured cells were lysed in 1 ml Trizol containing 100 μg glycogen per well. Samples were then extracted in chloroform and spun at 4° C. at 11,000×g for 15 min. The aqueous phase was collected and the RNA was precipitated with the addition of isopropanol. The samples were then spun at 11,000×g at 4° C. for 15 min, the pellet washed in 75% ethanol, dried, and dissolved in water. Samples were stored at −70° C. until use.
(§2) Total RNA samples were diluted to 100 μg/ml and treated with 40 units/ml […] DNAse-I (Ambion) for 30 min at 37° C. followed by inactivation at 75° C. for 5 min. Samples were quantitated by spectrophotometry or with the RiboGreen assay (Molecular Probes) and diluted to a concentration of 10 ng/μl. Samples were then assayed in duplicate or triplicate 25-μl reactions using 25 ng RNA per reaction with Perkin Elmer chemistry on an ABI Prism 7700 (Perkin Elmer) according to manufacturer's instructions. Gene-specific primers were used at 7.5 or 22.5 pmol per reaction, optimized for each gene examined, and the gene-specific probe was used at 5 pmol per reaction. Primers and probe were synthesized by Keystone Labs (Camarillo, Calif.). In this system, the probe is degraded by Taq polymerase during the amplification phase, releasing the fluorescent tag from its quenched state; amplification data is expressed as the number of PCR cycles required to elevate the fluorescence signal beyond a threshold intensity level. Fold induction values were calculated by subtracting the mean threshold cycle number (Ct) for each treatment group from the mean Ct for the vehicle group and raising 2 to the power of this difference.
(§3) Adult male C57 B1/6 mice (3 per group) were dosed by oral gavage with the LXR agonists Example 1, T0901317, or vehicle (0.5% methylcellulose). Example 1 was delivered at 10 mg kg twice daily, while T0901317 was administered at 50 mg/kg once daily. After 3 or 7 days' treatment, animals were killed and their brains removed. The cerebellum and both hippocampi were dissected and snap frozen in liquid nitrogen for RNA isolation. Total RNA was prepared from the hippocampus and cerebellum (black bars) and analyzed for gene expression patterns using QRT-PCR (as described above). Expression levels for each gene in each tissue were normalized to the average expression level in the vehicle group. Both LXR agonists enhanced ABCA1 expression relative to the vehicle-treated group, with the effect most pronounced in the cerebellum after 3 days' treatment.

[2] = test system: SREBP-1c; test: SREBP-1c gene expression in primary neuron cultures (QRT-PCR); assay type: cell-based, mouse; conditions: Neurons
Method: as §1
(§4) Total RNA samples were diluted to 100 μg/ml and treated with 40 units/ml […] DNAse-I (Ambion) for 30 min at 37° C. followed by inactivation at 75° C. for 5 min. Samples were quantitated by spectrophotometry or with the RiboGreen assay (Molecular Probes) and diluted to a concentration of 10 ng/μl. […] In this system, the probe is degraded by Taq polymerase during the amplification phase, releasing the fluorescent tag from its quenched state; amplification data is expressed as the number of PCR cycles required to elevate the fluorescence signal beyond a threshold intensity level. […]

[3] = test system: ABCG1; test: ABCG1 gene expression in primary astrocyte cultures (QRT-PCR); assay type: cell-based, mouse; conditions: Astrocytes
Method: as §1, §4

[4] = test system: Murine astroglia; test: Cholesterol efflux from astrocytes; assay type: cell-based, mouse; conditions: basal efflux, standard deviation in parentheses, * p<0.05
Method: Murine astroglia were obtained from postnatal day 1 pups. Briefly, pups were decapitated, their brains removed, and the cerebral cortices prepared as described previously (45), except that astrocyte plating media was used (Dulbecco's modified eagle media [DMEM] containing 4 mg/ml glucose, 5% FBS and 5% HS [GibcoBRL or Irvine Scientific], 100 U/ml penecillin/100 μg/ml streptomycin, 25 mM HEPES, and 2-4 mM glutamine). Glia were grown in T75 flasks at a density of approximately 2 brains per flask. Cells were fed once weekly by complete media exchange in maintenance media (DMEM containing 4.5 mg/ml glucose, 10% FBS, 100 U/ml penecillin/100 μg/ml streptomycin, 25 mM HEPES, and 6 mM glutamine). By visual inspection, these cultures were nearly entirely astroglial with <1% contamination with microglia. After 7-14 days in vitro, cells were collected by trypsinization, counted in a hemacytometer, and plated into 6-well plates at 50-100,000 cells per well in maintenance media. […]
Cholesterol efflux assays were performed as described elsewhere (24) with some modifications. […] Two hundred microliters of the culture media supernatant and 200 μl of the cell extract were counted for tritium in 2 ml Packard Ultima Gold Scint. […] Efflux is expressed as percent of the total radiolabeled cholesterol pool present in the cultures.

[5] = test system: ABCA1; test: ABCA1 gene expression in primary neuron cultures (QRT-PCR); assay type: cell-based, mouse; conditions: Neurons
Method: as §1, §4

[6] = test system: ABCG1; test: ABCG1 gene expression in primary neuron cultures (QRT-PCR); assay type: cell-based, mouse; conditions: Neurons
Method: as §1, §4

[7] = test system: SREBP-1c; test: SREBP-1c gene expression in the CNS after oral dosing; assay type: in vivo, C57 B1/6 mice; conditions: oral gavage, Example 1 10 mg kg twice daily, T0901317 50 mg/kg once daily
Method: as §1, §2, §3

[8] = test system: ABCA1; test: ABCA1 gene expression in primary astrocyte cultures (QRT-PCR); assay type: cell-based, mouse; conditions: Astrocytes
Method: as §1, §4

[9] = test system: ABCA1; test: ABCA1 gene expression in the CNS after oral dosing; assay type: in vivo, C57 B1/6 mice; conditions: oral gavage, Example 1 10 mg kg twice daily, T0901317 50 mg/kg once daily
Method: as §1, §2, §3

SREBP-1c expression normalized to vehicle-treated group (fold induction) [2] | ABCG1 expression normalized to vehicle-treated group (fold induction) [3] | ABCA1 expression normalized to vehicle-treated group (fold induction) [5] | ABCG1 expression normalized to vehicle-treated group (fold induction) [6] | ABCA1 expression normalized to vehicle-treated group (fold induction) [8] | SMILES | ABCG1 expression normalized to vehicle group ([1]; CB (cerebellum), first table) | ABCG1 expression normalized to vehicle group ([1]; CB (cerebellum), second table) | ABCG1 expression normalized to vehicle group ([1]; HC (hippocampus), first table) | ABCG1 expression normalized to vehicle group ([1]; HC (hippocampus), second table) | Cholesterol efflux as a percentage of total [3H] cholesterol [4] | SREBP-1c expression normalized to vehicle group ([7]; CB (cerebellum), first table) | SREBP-1c expression normalized to vehicle group ([7]; CB (cerebellum), second table) | SREBP-1c expression normalized to vehicle group ([7]; HC (hippocampus), first table) | SREBP-1c expression normalized to vehicle group ([7]; HC (hippocampus), second table) | ABCA1 expression normalized to vehicle group ([9]; CB (cerebellum), first table) | ABCA1 expression normalized to vehicle group ([9]; CB (cerebellum), second table) | ABCA1 expression normalized to vehicle group ([9]; HC (hippocampus), first table) | ABCA1 expression normalized to vehicle group ([9]; HC (hippocampus), second table)
3.1 | 14.9 | 2.8 | 2.8 | 11.8 | O=C(O)Cc1cccc(OCCCN(Cc2cccc(C(F)(F)F)c2Cl)CC(c2ccccc2)c2ccccc2)c1 [Example 1, 2-(3-{3-[[2-Chloro-3-(trifluoromethyl)benzyl](2,2-diphenylethyl)amino]propoxy}-phenyl)acetic Acid] | 1.52 (0.073) | 1.17 (0.142) | 1.14 (0.212) | 0.89 (0.045) | 4.722 (0.783)* % | 2.05 (0.427) | 1.75 (0.236) | 2.22 (0.600) | 0.71 (0.327) | 2.13 (0.354) | 1.43 (0.302) | 1.57 (0.348) | 1.26 (0.162)
3.1 | 12.5 | 3.0 | 3.1 | 18.4 | O=S(=O)(c1ccccc1)N(CC(F)(F)F)c1ccc(C(O)(C(F)(F)F)C(F)(F)F)cc1 [Example T0901317, N-(2,2,2-trifluoroethyl)-N-[4-(2,2,2-trifluoro-1-hydroxy-1-trifluoromethyl-ethyl)-phenyl]-benzenesulfonamide] | 2.31 (0.081) | 1.80 (0.116) | 1.22 (0.098) | 1.37 (0.092) | 4.370 (0.561)* % | 3.44 (0.632) | 2.97 (0.557) | 2.68 (0.209) | 2.16 (0.110) | 3.66 (0.389) | 2.94 (0.084) | 2.70 (0.304) | 2.69 (0.175)
